# Data from patent publication US7833964B2, “Methods of reducing visceral fat by increasing levels of insulin-like growth factor-I (IGF-I)” (Tercica, Inc., priority 2003, dated 2010).
# Where “and” joins values, the source holds several entries; their conditions need not be identical. Identical values can stand only once.
# Columns and labels:
# [1] = Mid-thigh CT scan: thigh adipose tissue (TAT); format: in vivo, human
# Method: All CT scans were performed on GE Sytec 4000 CT scanners or an equivalent scanner.
# An initial Thigh Scan was performed using the following procedure: • 1. The subject lay on the CT bed with his or her feet toward the scanner. The subject's knees were at least 3 inches above the extended bed joint, not over the joint. • 2. The legs were positioned so they were not touching each other and the hands were crossed over the abdomen so as not to interfere with the scan. • 3. The CT technician then positioned the bed. The entire femur was visualized in the initial topogram. • 4. The technician then made a topogram of the entire femur of the non-dominant leg and recorded this picture on the film. The length of the femur was then measured and recorded and this measurement was used to identify the midpoint of the femur. This midpoint was used to assess the cross section of the thigh. • 5. The technician took a 10-mm slice at the precise level of the mid-point of the femur with the following settings for a GE Sytec 4000 scanner: • kV=100 • MA=170 • 1 sec • DFOV=21 • Algorithm=standard
# Technicians were advised that although settings for some scanners may be slightly different, the settings must be standardized so as to give the greatest definition for fat and lean tissue. Once the technician determined the appropriate setting for a scanner, he or she was advised to use the same settings for every (slice) scan. The topograms could be at different settings as the topograms would not be imaged. • 6. The entire cross section of the nondominant thigh was visualized on the screen. If the entire thigh was not visualized on the screen, the picture was reconfigured with a larger display field of view. Once the entire thigh was visualized on the screen, the technician downloaded the cross section to the disk. The disk was checked to make sure the image was actually there, and then the picture was recorded on film. • 7. The exam number, series number, and image number of the slice was then recorded. • 8. The technician sent the film to the printer at this point. The film was set at four pictures per film, and the film had for the femur the recorded total distance, the midpoint, and the slice of the thigh.
# The same leg (left) was used as in the initial scan. A topogram of the thigh was taken, and a measurement made down the femur to the midpoint of the femur using the same distance as was used in the baseline thigh scan. A 10-mm cross section scan was taken at the midpoint using the identical settings as were used for the baseline scan. A record was made of the exam number, series number, and image number of the slice.
# Slices were downloaded onto the scanner and then retrieved via optical disk (or the Internet if possible) to a computer for analysis. During analysis, the area of intra-abdominal and subcutaneous fat as well as oblique, psoas, quadratum laborum, and sacrospinalis muscles were measured. The images were digitized by optical density to separate bone, muscle, and fat compartments using a modified version of the NIH IMAGE program. Pixel units were converted to area measurements using an internal calibration standard. Digitized images were analyzed in a blinded fashion. The coefficient of variation of repeated analysis of a single scan is <1.5%.
# [2] = Adverse events judged possibly or probably related to study drug; details: glyburide 10 mg BID + rhIGF-I placebo (N = 34)
# Method: All adverse events occurring during the treatment and post-treatment periods of the study (day 1 to week 14) were monitored through the follow-up evaluation at week 14. Adverse events continuing beyond the follow-up period were monitored until resolution, as appropriate.
# In addition to the adverse events described above, hypoglycemia was expected to occur in some subjects. Hypoglycemia was defined as a BG of <50 mg/dL as indicated by the One-Touch Profile BG meter or the clinical laboratory. In the event of repeated hypoglycemic episodes, the glyburide dose could be decreased (during the treatment period only). Symptomatic hypoglycemic episodes, regardless of blood glucose reading, were documented as hypoglycemia.
# Change in BMI = format: in vivo, human; details: for BMI Change (SE) Wk 14: 2 weeks after treatment stopped
# Source text: The degree of obesity in humans is commonly assessed by calculating the body mass index or BMI. The BMI is essentially correcting body weight for height. Obviously a very tall person will likely weigh more than a person with short stature so this correction for height makes BMI a better gauge of the degree of obesity than uncorrected body weight. Table 6 gives the BMI data for the subjects treated with IGF-I. At baseline the subjects had average BMIs of over 30. Overweight is defined as a BMI of over 25 and obesity is defined as a BMI of over 30. […] Treatment with IGF-I reduced BMI and this effect was maintained until week 14, which was 2 weeks after treatment with IGF-I was stopped. In subjects treated with 20 micrograms of IGF-I, BMI fell by 1.0 kg/m^2 at 12 weeks and 0.9 kg/m^2 at week 14. This effect of IGF-I on BMI was highly statistically significant versus glyburide at week 12 (p=0.019) and week 14 (p=0.0064). Therefore IGF-I had the ability to reduce BMI or directly affect the most widely accepted measure of obesity. […] This greater effect of low dose IGF-I was unexpected.
# Change in body weight [3] = format: in vivo, human; details: for Weight Change (SE) Week 14: 2 weeks after treatment stopped; for Weight Change (SE) Week 8: change from Day 1
# Change in body weight [4] = format: in vivo, human; details: for Weight Change (SE) Week 12: change from Day 1
# Source text: The efficacy endpoints were the change in glucose control as assessed by the change from baseline (day 1 to week 12) in hemoglobin A1c (HbA1c) levels, and changes from baseline (day 1 to week 12) in fasting blood glucose (BG), body weight, and visceral and mid-thigh fat.
# The primary efficacy variable for the assessment of treatment effect on glucose control at Week 12 was the change from baseline (day 1) in HbA1c levels. Secondary efficacy variables assessing glucose control at Week 12 were the change from baseline (day 1) for each of the following: fasting blood glucose concentration, weight, and visceral and mid-thigh fat.
# Secondary efficacy variables assessing glucose control at Week 12 were the change from baseline (Day 1) for each of the following: weight, and visceral and mid-thigh fat.
# hemoglobin A1c (HbA1c) = test: Glucose control: change from baseline in HbA1c, double-blind placebo-controlled study in type II DM; format: in vivo, human; details: for Hemoglobin A1c Endpoint Change % from baseline, Mean (SD): last available measurement carried forward; for Hemoglobin A1c Change % from baseline, Week 4, Mean (SD): type II DM subjects
# Method: Accordingly, subjects with type II DM were treated with a combination of rhIGF-I and glyburide, or with rhIGF-I or glyburide alone, to ascertain the potential benefits of the addition of rh1GF-I to glyburide therapy on glycemic control, incidence of hypoglycemia, and weight gain. […] The use of any additional orally administered drug or insulin to treat hyperglycemia during the pretreatment and treatment periods was prohibited. […] Randomization was stratified by gender, by prior oral […] agent therapy, and by HbA1c level at day 14.
# [5] = mini-poodles; cited from earlier work
# [6] = rats, catabolic state induced by diabetes, dexamethasone, or intestinal resection; cited from earlier work
# [7] = injected in castrated male sheep; cited from earlier work
# [8] = glyburide 10 mg BID + rhIGF-I placebo
# [9] = IGF-I 20 μg/kg, with glyburide or glyburide placebo per label
# [10] = IGF-I 40 μg/kg, with glyburide or glyburide placebo per label
# [11] = IGF-I 20 μg/kg BID, with glyburide or glyburide placebo per label
# [12] = IGF-I 40 μg/kg BID, with glyburide or glyburide placebo per label
# [13] = subjects treated with 20 micrograms of IGF-I
# [14] = low dose IGF-I (20 μg/kg BID) alone
# [15] = rhIGF-I 20 μg/kg BID SC, with glyburide 10 mg BID or glyburide placebo per label
# [16] = rhIGF-I 40 μg/kg BID SC, with glyburide 10 mg BID or glyburide placebo per label
compound,measurement,setting,value
"COc1ccc(Cl)cc1C(=O)NCCc1ccc(S(=O)(=O)NC(=O)NC2CCCCC2)cc1 [Glyburide, glyburide, reference compound]","Change in TAT (%), mean (SEM)",[1]; glyburide active + IGF-I placebo,2.5 (2.0) %
same,"Change in TAT, mean (SEM)","[1]; glyburide active + IGF-I placebo, thigh CT, change from baseline",1.0 (1.6) sq cm
same,Adverse event: Arthralgia,[2],1 (3) n (%)
same,Adverse event: Asthenia,[2],2 (6) n (%)
same,Adverse event: Headache,[2],2 (6) n (%)
same,Adverse event: Hypoglycemia,[2],3 (9) n (%)
same,Adverse event: Jaw pain,[2],1 (3) n (%)
same,Adverse event: Pain,[2],2 (6) n (%)
same,Adverse event: Peripheral Edema,[2],0 n (%)
same,BMI Change (SE) Wk 12,Change in BMI; [8],0.0 (0.2) kg/m^2
same,BMI Change (SE) Wk 14,Change in BMI; [8],0.0 (0.3) kg/m^2
same,BMI Change (SE) Wk 8,"Change in BMI; glyburide 10 mg BID + rhIGF-I placebo, change from Day 1",−0.1 (0.1) kg/m^2
same,Weight Change (SE) Week 14,Change in body weight [3]; [8],0.0 (0.8) kg
same,Weight Change (SE) Week 8,Change in body weight [3]; [8],−0.2 (0.4) kg
same,Weight Change (SE) Week 12,Change in body weight [4]; [8],−0.1 (0.5) kg
same,"Hemoglobin A1c Change % from baseline, Week 8, Mean (SD)",hemoglobin A1c (HbA1c); [8],0.05 (0.7) %
same,"Hemoglobin A1c Change % from baseline, Week 12, Mean (SD)",hemoglobin A1c (HbA1c); [8],0.32% and 0.32 (0.7) %
same,"Hemoglobin A1c Endpoint Change % from baseline, Mean (SD)",hemoglobin A1c (HbA1c); [8],0.12 (0.8) %
same,"Hemoglobin A1c Change % from baseline, Week 4, Mean (SD)",hemoglobin A1c (HbA1c); [8],−0.13 (0.5) %
"IGF-I: recombinant human insulin-like growth factor-I from Genentech; sterile benzyl alcohol-preserved solution, 70 mg in 7 mL acetate/NaCl, pH 5.4; given SC","Change in TAT (%), mean (SEM)",[1]; [9],−1.4 (3.7) %
same,"Change in TAT, mean (SEM)",[1]; [9],−1.2 (2.8) sq cm
same,"Change in TAT (%), mean (SEM)",[1]; [10],3.9 (4.3) %
same,"Change in TAT, mean (SEM)",[1]; [10],0.3 (4.3) sq cm
same,BMI Change (SE) Wk 8,Change in BMI; [11],−0.5 (0.2) kg/m^2
same,BMI Change (SE) Wk 12,Change in BMI; [11],−1.0 (0.2) kg/m^2
same,BMI Change (SE) Wk 14,Change in BMI; [11],−0.9 (0.2) kg/m^2
same,BMI Change (SE) Wk 8,Change in BMI; [12],−0.1 (0.2) kg/m^2
same,BMI Change (SE) Wk 12,Change in BMI; [12],−0.2 (0.2) kg/m^2
same,BMI Change (SE) Wk 14,Change in BMI; [12],−0.6 (0.2) kg/m^2
same,"BMI fell by, at 12 weeks",Change in BMI; [13],1.0 kg/m^2
same,"BMI fell by, at week 14",Change in BMI; [13],0.9 kg/m^2
same,Weight Change (SE) Week 14,Change in body weight [3]; [11],−2.7 (0.6) kg
same,Weight Change (SE) Week 8,Change in body weight [3]; [11],−1.5 (0.6) kg
same,Weight Change (SE) Week 14,Change in body weight [3]; [12],−1.6 (0.5) kg
same,Weight Change (SE) Week 8,Change in body weight [3]; [12],−0.2 (0.5) kg
same,weight loss 2 weeks after treatment was stopped (Week 14),Change in body weight [3]; [14],2.7 kg
same,"weight lost on average, Week 8",Change in body weight [3]; [14],1.5 kg
same,body mass index,[5],reduced body mass index
same,percentage of body fat,[6],trend toward a lower percentage of body fat
same,Weight Change (SE) Week 12,Change in body weight [4]; [11],−2.8 (0.7) kg
same,Weight Change (SE) Week 12,Change in body weight [4]; [12],−0.6 (0.7) kg
same,"weight lost on average, Week 12",Change in body weight [4]; [14],2.8 kg
same,"Hemoglobin A1c Change % from baseline, Week 8, Mean (SD)",hemoglobin A1c (HbA1c); [15],−0.29 (0.8) %
same,"Hemoglobin A1c Change % from baseline, Week 12, Mean (SD)",hemoglobin A1c (HbA1c); [15],0.13 (1.2) %
same,"Hemoglobin A1c Change % from baseline, Week 4, Mean (SD)",hemoglobin A1c (HbA1c); [15],−0.10 (0.6) %
same,"Hemoglobin A1c Endpoint Change % from baseline, Mean (SD)","hemoglobin A1c (HbA1c); rhIGF-I 20 μg/kg BID SC, with glyburide 10 mg BID or placebo per label",0.04 (0.9) %
same,"Hemoglobin A1c Change % from baseline, Week 8, Mean (SD)",hemoglobin A1c (HbA1c); [16],−0.47 (0.9) %
same,"Hemoglobin A1c Change % from baseline, Week 12, Mean (SD)",hemoglobin A1c (HbA1c); [16],−0.58% and −0.58 (1.2) %
same,"Hemoglobin A1c Change % from baseline, Week 4, Mean (SD)",hemoglobin A1c (HbA1c); [16],−0.37 (0.5) %
same,"Hemoglobin A1c Endpoint Change % from baseline, Mean (SD)","hemoglobin A1c (HbA1c); rhIGF-I 40 μg/kg BID SC, with glyburide 10 mg BID or placebo per label",−0.30 (0.8) %
same,effect on body fat,[7],no detectable effect
same,insulin levels,[7],lowered insulin levels
